Patent publication US12473289B2, “Heterocyclic compounds as delta-5 desaturase inhibitors and methods of use” (Amgen Inc., priority 2019, dated 2025)

target: Delta-5-Desaturase (D5D) (Homo sapiens (Human), UniProt O60427); assay: In vitro measurement of Delta-5-Desaturase inhibitory activity using DGLA-CoA and Arachidonyl-CoA mass spectrometric assays; type: biochemical; conditions: membrane preparations of D5D-overexpressing HEK293 6E cells; averaged over at least two independent runs
In short: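 DGLA-CoA and arachidonyl-CoA were read by RapidFire SPE triple-quad MS (negative mode, MRM) after a 1 h ambient-temperature reaction quenched with acetonitrile. Enzyme was D5D-overexpressing HEK293 6E membranes at 10 μg/mL final; substrate solution held 0.01 mM DGLA plus NADH, ATP and CoA. Inhibition was referenced to DMSO and no-enzyme wells; 4PL IC50.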

Sequence of Delta-5-Desaturase (D5D) (O60427 whole entry, species assumed): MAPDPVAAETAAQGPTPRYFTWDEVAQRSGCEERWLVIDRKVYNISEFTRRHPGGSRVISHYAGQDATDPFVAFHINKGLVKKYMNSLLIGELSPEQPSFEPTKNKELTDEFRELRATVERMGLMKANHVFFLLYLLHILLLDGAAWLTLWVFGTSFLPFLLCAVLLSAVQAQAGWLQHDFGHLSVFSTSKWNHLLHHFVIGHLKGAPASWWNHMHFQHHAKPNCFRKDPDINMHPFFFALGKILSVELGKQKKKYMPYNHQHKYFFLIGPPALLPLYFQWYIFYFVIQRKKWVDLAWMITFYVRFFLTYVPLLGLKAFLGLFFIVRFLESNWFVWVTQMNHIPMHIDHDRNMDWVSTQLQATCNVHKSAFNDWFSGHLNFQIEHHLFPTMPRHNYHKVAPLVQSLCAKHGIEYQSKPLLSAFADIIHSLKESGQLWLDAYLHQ

| SMILES | IC50 |
| --- | --- |
| O=c1ccn2c(=O)c(-c3ccc(OCCF)cc3)c(C(F)(F)F)nc2[nH]1 [Example 1-56, 7-(4-(2-fluoroethoxy)phenyl)-8-(trifluoromethyl)-2H-pyrimido[1,2-a]pyrimidine-2,6(1H)-dione] | 9.28 µM |
| COc1ccn2c(=O)c(-c3cc4ccccc4o3)c(C(F)(F)F)nc2c1 [Example 1-7, 3-(1-benzofuran-2-yl)-8-methoxy-2-(trifluoromethyl)-4H-pyrido[1,2-a]pyrimidin-4-one] | 0.0852 µM |
| COc1ccn2c(=O)c(-c3cnn(CCC(F)(F)F)c3)c(C(F)(F)F)nc2n1 [Example 2-4, 8-methoxy-2-(trifluoromethyl)-3-(1-(3,3,3-trifluoropropyl)-1H-pyrazol-4-yl)-4H-pyrimido[1,2-a]pyrimidin-4-one] | 0.0574 µM |
| N#Cc1ccn2c(=O)c(-c3ccc(OCC(F)(F)F)cc3)c(C(F)(F)F)nc2c1 [Example 2-9, 4-oxo-3-(4-(2,2,2-trifluoroethoxy)phenyl)-2-(trifluoromethyl)-4H-pyrido[1,2-a]pyrimidine-8-carbonitrile] | 0.44 µM |
| COc1cnn2c(=O)c(-c3cnc(OCC(F)(F)F)nc3)c(C(F)(F)F)nc2c1 [Example 38, 8-Methoxy-3-[2-(2,2,2-trifluoroethoxy)pyrimidin-5-yl]-2-(trifluoromethyl)-4H-pyrimido[1,2-b]pyridazin-4-one] | 0.0992 µM |
| O=C(O)c1ccn2c(=O)c(-c3cnn(CC(F)(F)C(F)(F)F)c3)c(C(F)(F)F)nc2c1 [Example 1-21, 4-oxo-3-(1-(2,2,3,3,3-pentafluoropropyl)-1H-pyrazol-4-yl)-2-(trifluoromethyl)-4H-pyrido[1,2-a]pyrimidine-8-carboxylic acid] | 3.39 µM |
| COc1ccn2c(=O)c(-c3ccc(OC(F)F)cc3)c(C(F)(F)F)nc2c1 [Example 1-54, 3-(4-(difluoromethoxy)phenyl)-8-methoxy-2-(trifluoromethyl)-4H-pyrido[1,2-a]pyrimidin-4-one] | 0.0066 µM |
| N#Cc1ccn2c(=O)c(-c3cnn(CC(F)(F)C(F)(F)F)c3)c(CF)nc2c1 [Example 1-86, 2-(fluoromethyl)-4-oxo-3-(1-(2,2,3,3,3-pentafluoropropyl)-1H-pyrazol-4-yl)-4H-pyrido[1,2-a]pyrimidine-8-carbonitrile] | 0.134 µM |
| COc1ccn2c(=O)c(-c3nc(OCC(F)(F)F)cs3)c(C(F)(F)F)nc2c1 [Example 51, 8-Methoxy-3-[4-(2,2,2-trifluoroethoxy)-1,3-thiazol-2-yl]-2-(trifluoromethyl)-4H-pyrido[1,2-a]pyrimidin-4-one] | 2.98 µM |
| [2H]C([2H])([2H])Oc1ccn2c(=O)c(-c3cnn(CCCC(F)(F)F)c3)c(C(F)(F)F)nc2c1 [Example 1-63, 8-(methyloxy-d3)-3-(1-(4,4,4-trifluorobutyl)-1H-pyrazol-4-yl)-2-(trifluoromethyl)-4H-pyrido[1,2-a]pyrimidin-4-one] | 0.0281 µM |
| O=c1c(-c2ccc(OCC(F)(F)F)cc2)c(C(F)(F)F)nc2cc(C3CNC3)ccn12 [Example 28, 8-(3-Azetidinyl)-3-(4-(2,2,2-trifluoroethoxy)phenyl)-2-(trifluoromethyl)-4H-pyrido[1,2-a]pyrimidin-4-one] | 2.94 µM |
| O=c1c(-c2ccc(OCC(F)(F)F)cc2F)c(C(F)(F)F)nc2ccccn12 [Example 5-1, 3-(2-Fluoro-4-(2,2,2-trifluoroethoxy)phenyl)-2-(trifluoromethyl)-4H-pyrido[1,2-a]pyrimidin-4-one] | 0.0125 µM |
| COc1ccn2c(=O)c(-c3ccc(OCC(F)(F)F)nc3)c(C(F)F)nc2c1 [Example 1-13, 2-(difluoromethyl)-8-methoxy-3-(6-(2,2,2-trifluoroethoxy)-3-pyridinyl)-4H-pyrido[1,2-a]pyrimidin-4-one] | 0.0342 µM |
| COc1ccn2c(=O)c(-c3ccc(OCC#N)cc3)c(C(F)(F)F)nc2c1 [Example 21, (4-(8-Methoxy-4-oxo-2-(trifluoromethyl)-4H-pyrido[1,2-a]pyrimidin-3-yl)phenoxy)acetonitrile] | 0.0058 µM |
| COc1ccn2c(=O)c(-c3ccc(O[C@@H](C)C#N)cc3)c(C(F)(F)F)nc2n1 [Example 8-7, (2S)-2-(4-(8-methoxy-4-oxo-2-(trifluoromethyl)-4H-pyrimido[1,2-a]pyrimidin-3-yl)phenoxy)propanenitrile] | 4.91 µM |
| COc1ccn2c(=O)c(-c3cnn(CCC(F)(F)F)c3)c(C(F)F)nc2c1 [Example 1-14, 2-(difluoromethyl)-8-methoxy-3-(1-(3,3,3-trifluoropropyl)-1H-pyrazol-4-yl)-4H-pyrido[1,2-a]pyrimidin-4-one] | 0.0229 µM |
| CN(C)c1ccn2c(=O)c(-c3ccc(OCC(F)(F)F)cc3)c(C(F)(F)F)nc2c1 [Example 1-28, 8-(dimethylamino)-3-(4-(2,2,2-trifluoroethoxy)phenyl)-2-(trifluoromethyl)-4H-pyrido[1,2-a]pyrimidine-4-one] | 0.0435 µM |
| NC(=O)c1ccn2c(=O)c(-c3ccc(OCC(F)(F)F)cc3)c(C(F)(F)F)nc2c1 [Example 12-2, 4-oxo-3-(4-(2,2,2-trifluoroethoxy)phenyl)-2-(trifluoromethyl)-4H-pyrido[1,2-a]pyrimidine-8-carboxamide] | 0.0052 µM |
| O=c1c(-c2ccc(OCC(F)(F)F)c(Cl)c2)c(C(F)(F)F)nc2ccccn12 [Example 5-2, 3-(3-chloro-4-(2,2,2-trifluoroethoxy)phenyl)-2-(trifluoromethyl)-4H-pyrido[1,2-a]pyrimidin-4-one] | 0.157 µM |

The remaining lines, values ahead:

| IC50 | SMILES |
| --- | --- |
| 0.0302 µM | O=c1c(-c2cnn(CC(F)(F)C(F)(F)F)c2)c(C(F)(F)F)nc2n1CCOC2 [Example 39-34, 3-[1-(2,2,3,3,3-pentafluoropropyl)-1H-pyrazol-4-yl]-2-(trifluoromethyl)-4H,6R,7H,9H-pyrimido[2,1-c][1,4]oxazin-4-one] |
| 0.0191 µM | Cc1cc2nc(C(F)(F)F)c(-c3cnn(CC(F)(F)C(F)(F)F)c3)c(=O)n2cc1F [Example 39-56, 7-fluoro-8-methyl-3-[1-(2,2,3,3,3-pentafluoropropyl)-1H-pyrazol-4-yl]-2-(trifluoromethyl)-4H-pyrido[1,2-a]pyrimidin-4-one] |
| 0.111 µM | C[C@@H](O)c1ccn2c(=O)c(-c3ccc(OCC(F)(F)F)cc3)c(C(F)(F)F)nc2c1 [Example 30-2, 8-((1R)-1-hydroxyethyl)-3-(4-(2,2,2-trifluoroethoxy)phenyl)-2-(trifluoromethyl)-4H-pyrido[1,2-a]pyrimidin-4-one] |
| 0.0511 µM | Cc1cc2nc(C(F)(F)F)c(-c3cnn(CCC(F)(F)F)c3)c(=O)n2cc1Cl [Example 41-2, 7-chloro-8-methyl-2-(trifluoromethyl)-3-[1-(3,3,3-trifluoropropyl)-1H-pyrazol-4-yl]-4H-pyrido[1,2-a]pyrimidin-4-one] |
| 0.0474 µM | COc1ccn2c(=O)c(-c3cnn(CC4CC4)c3)c(C(F)(F)F)nc2c1 [Example 39-45, 3-[1-(cyclopropylmethyl)-1H-pyrazol-4-yl]-8-methoxy-2-(trifluoromethyl)-4H-pyrido[1,2-a]pyrimidin-4-one] |
| 0.0743 µM | Cc1cnn2c(=O)c(-c3cnn(CC4CC4)c3)c(C(F)(F)F)nc2c1 [Example 39-51, 3-[1-(cyclopropylmethyl)-1H-pyrazol-4-yl]-8-methyl-2-(trifluoromethyl)-4H-pyrimido[1,2-b]pyridazin-4-one] |
| 1.43 µM | CC(C)(O)c1ccn2c(=O)c(-c3cnn(CC(F)(F)C(F)(F)F)c3)c(C(F)(F)F)nc2c1 [Example 39-7, 8-(2-hydroxypropan-2-yl)-3-[1-(2,2,3,3,3-pentafluoropropyl)-1H-pyrazol-4-yl]-2-(trifluoromethyl)-4H-pyrido[1,2-a]pyrimidin-4-one] |
| 0.0473 µM | N#Cc1ccc2nc(C(F)(F)F)c(-c3cnn(CC(F)(F)C(F)(F)F)c3)c(=O)n2c1 [Example 39-9, 4-oxo-3-[1-(2,2,3,3,3-pentafluoropropyl)-1H-pyrazol-4-yl]-2-(trifluoromethyl)-4H-pyrido[1,2-a]pyrimidine-7-carbonitrile] |
| 0.0409 µM | CNc1ccn2c(=O)c(-c3ccc(OCC(F)(F)F)cc3)c(C(F)(F)F)nc2n1 [Example 14-1, 8-(Methylamino)-3-(4-(2,2,2-trifluoroethoxy)phenyl)-2-(trifluoromethyl)-4H-pyrimido[1,2-a]pyrimidin-4-one] |
| 0.173 µM | C[S@@+]([O-])c1ccn2c(=O)c(-c3cnn(CC(F)(F)C(F)(F)F)c3)c(C(F)(F)F)nc2c1 [Example 15-6, 8-((R)-methylsulfinyl)-3-(1-(2,2,3,3,3-pentafluoropropyl)-1H-pyrazol-4-yl)-2-(trifluoromethyl)-4H-pyrido[1,2-a]pyrimidin-4-one] |
| 0.0524 µM | N#CCc1ccn2c(=O)c(-c3cnn(CC(F)(F)C(F)(F)F)c3)c(C(F)(F)F)nc2c1 [Example 16-1, (4-Oxo-3-(1-(2,2,3,3,3-pentafluoropropyl)-1H-pyrazol-4-yl)-2-(trifluoromethyl)-4H-pyrido[1,2-a]pyrimidin-8-yl)acetonitrile] |
| 2.95 µM | O=c1c(-c2cnn(CCC(F)(F)F)c2)c(C(F)(F)F)nc2ccc(C3CC3)cn12 [Example 39-22, 7-cyclopropyl-2-(trifluoromethyl)-3-[1-(3,3,3-trifluoropropyl)-1H-pyrazol-4-yl]-4H-pyrido[1,2-a]pyrimidin-4-one] |
| 0.137 µM | NCc1ccn2c(=O)c(-c3cnn(CC(F)(F)C(F)(F)F)c3)c(C(F)(F)F)nc2c1 [Example 16-2, 8-(aminomethyl)-3-(1-(2,2,3,3,3-pentafluoropropyl)-1H-pyrazol-4-yl)-2-(trifluoromethyl)-4H-pyrido[1,2-a]pyrimidin-4-one] |
| 44.4 µM | COc1ccc2nc(C(F)(F)F)c(-c3cnn(CC(F)(F)C(F)(F)F)c3)c(=O)n2n1 [Example 39-14, 7-methoxy-3-[1-(2,2,3,3,3-pentafluoropropyl)-1H-pyrazol-4-yl]-2-(trifluoromethyl)-4H-pyrimido[1,2-b]pyridazin-4-one] |
